Source: ChEMBL document CHEMBL6120979, “Cell penetrable peptide nucleic acids targeting PDZK1IP1 with anti-inflammatory potential in human keratinocytes” (Bioorg Med Chem Lett, 2025)
Active and inactive are the calls of the source. The calls are words filed in the database; no cut-off is given here.

How the values were obtained:
[1] = test system: RNA; test: Binding affinity to complementary RNA (unknown origin) in sodium phosphate buffer assessed as melting temperature of PNA-RNA duplex; assay type: nucleic-acid assay
[2] = test system: RNA; test: Binding affinity to complementary RNA (unknown origin) with mismatch bases in sodium phosphate buffer; assay type: nucleic-acid assay
[3] = test system: Keratinocyte; test: Inhibition of PDZK1IP1 mRNA expression in human keratinocytes incubated for 24 hrs by RT-qPCR analysis; assay type: functional, cell-based

Structure (SMILES)	Tm [1] [°C]	Activity [2]	inhibition [3]
Cc1cn(CC(=O)N(CCNC(=O)CN(CCNC(=O)CN(CCNC(=O)CN(CCNC(=O)CN(CCN)C(=O)Cn2ccc(N)nc2=O)C(=O)Cn2cc(C)c(=O)[nH]c2=O)C(=O)Cn2cc3cc(COCCN)[nH]c3nc2=O)C(=O)Cn2ccc(N)nc2=O)CC(=O)NCCN(CC(=O)NCCN(CC(=O)NCCN(CC(=O)NCCN(CC(=O)NCCN(CC(=O)NCCN(CC(=O)NCCN(CC(=O)NCCN(CC(=O)NCCN(CC(=O)O)C(=O)Cn2cc3cc(COCCN)[nH]c3nc2=O)C(=O)Cn2ccc(N)nc2=O)C(=O)Cn2cnc3c(N)nc(NCCCCCN)nc32)C(=O)Cn2ccc(N)nc2=O)C(=O)Cn2cnc3c(=O)[nH]c(N)nc32)C(=O)Cn2cnc3c(=O)[nH]c(NCCCCCCN)nc32)C(=O)Cn2cc(C)c(=O)[nH]c2=O)C(=O)Cn2cc3cc(COCCN)[nH]c3nc2=O)C(=O)Cn2ccc(N)nc2=O)c(=O)[nH]c1=O	79	inactive	
Cc1cn(CC(=O)N(CCNC(=O)CN(CCNC(=O)CN(CCNC(=O)CN(CCNC(=O)CN(CCNC(=O)CN(CCNC(=O)CN(CCNC(=O)CN(CCNC(=O)CN(CCNC(=O)CN(CCNC(=O)CN(CCNC(=O)CN(CCNC(=O)CN(CCN)C(=O)Cn2cnc3c(N)nc(NCCCCCN)nc32)C(=O)Cn2ccc(N)nc2=O)C(=O)Cn2cc(C)c(=O)[nH]c2=O)C(=O)Cn2ccc(N)nc2=O)C(=O)Cn2cnc3c(N)nc(NCCCCCN)nc32)C(=O)Cn2ccc(N)nc2=O)C(=O)Cn2cnc3c(=O)[nH]c(N)nc32)C(=O)Cn2cnc3c(=O)[nH]c(N)nc32)C(=O)Cn2ccc(N)nc2=O)C(=O)Cn2cc(C)c(=O)[nH]c2=O)C(=O)Cn2cc3cc(COCCN)[nH]c3nc2=O)C(=O)Cn2ccc(N)nc2=O)CC(=O)NCCN(CC(=O)NCCN(CC(=O)NCCN(CC(=O)NCCN(CC(=O)NCCN(CC(=O)NCCN(CC(=O)NCCN(CC(=O)O)C(=O)Cn2cnc3c(N)nc(NCCCCCN)nc32)C(=O)Cn2ccc(N)nc2=O)C(=O)Cn2cnc3c(=O)[nH]c(N)nc32)C(=O)Cn2cnc3c(=O)[nH]c(NCCCCCCN)nc32)C(=O)Cn2cc(C)c(=O)[nH]c2=O)C(=O)Cn2ccc(N)nc2=O)C(=O)Cn2ccc(N)nc2=O)c(=O)[nH]c1=O	> 90	inactive	
Cc1cn(CC(=O)N(CCNC(=O)CN(CCNC(=O)CN(CCNC(=O)CN(CCNC(=O)CN(CCNC(=O)CN(CCNC(=O)CN(CCNC(=O)CN(CCNC(=O)CN(CCNC(=O)CN(CCNC(=O)CN(CCNC(=O)CN(CCNC(=O)CN(CCNC(=O)CN(CCN)C(=O)Cn2cc(C)c(=O)[nH]c2=O)C(=O)Cn2ccc(N)nc2=O)C(=O)Cn2cnc3c(N)nc(NCCCCCN)nc32)C(=O)Cn2cc3cc(COCCN)[nH]c3nc2=O)C(=O)Cn2cnc3c(=O)[nH]c(N)nc32)C(=O)Cn2cnc3c(=O)[nH]c(NCCCCCCN)nc32)C(=O)Cn2ccc(N)nc2=O)C(=O)Cn2cc(C)c(=O)[nH]c2=O)C(=O)Cn2cc3cc(COCCN)[nH]c3nc2=O)C(=O)Cn2ccc(N)nc2=O)C(=O)Cn2cc(C)c(=O)[nH]c2=O)C(=O)Cn2ccc(N)nc2=O)C(=O)Cn2cc3cc(COCCN)[nH]c3nc2=O)CC(=O)O)c(=O)[nH]c1=O	80.4	inactive	
Cc1cn(CC(=O)N(CCNC(=O)CN(CCNC(=O)CN(CCNC(=O)CN(CCNC(=O)CN(CCNC(=O)CN(CCN)C(=O)Cn2ccc(N)nc2=O)C(=O)Cn2cnc3c(N)nc(NCCCCCN)nc32)C(=O)Cn2cnc3c(=O)[nH]c(N)nc32)C(=O)Cn2cnc3c(=O)[nH]c(N)nc32)C(=O)Cn2cc3cc(COCCN)[nH]c3nc2=O)CC(=O)NCCN(CC(=O)NCCN(CC(=O)NCCN(CC(=O)NCCN(CC(=O)NCCN(CC(=O)NCCN(CC(=O)NCCN(CC(=O)NCCN(CC(=O)O)C(=O)Cn2cnc3c(=O)[nH]c(NCCCCCCN)nc32)C(=O)Cn2cnc3c(=O)[nH]c(N)nc32)C(=O)Cn2cnc3c(=O)[nH]c(N)nc32)C(=O)Cn2cnc3c(=O)[nH]c(NCCCCCCN)nc32)C(=O)Cn2cc(C)c(=O)[nH]c2=O)C(=O)Cn2cc3cc(COCCN)[nH]c3nc2=O)C(=O)Cn2ccc(N)nc2=O)C(=O)Cn2ccc(N)nc2=O)c(=O)[nH]c1=O		inactive	

Second part, led by results:

Tm [1] [°C]	Activity [2]	Structure (SMILES)	inhibition [3]
79.2	inactive	Cc1cn(CC(=O)N(CCNC(=O)CN(CCNC(=O)CN(CCN)C(=O)Cn2ccc(N)nc2=O)C(=O)Cn2cc3cc(COCCN)[nH]c3nc2=O)CC(=O)NCCN(CC(=O)NCCN(CC(=O)NCCN(CC(=O)NCCN(CC(=O)NCCN(CC(=O)NCCN(CC(=O)NCCN(CC(=O)NCCN(CC(=O)NCCN(CC(=O)NCCN(CC(=O)NCCN(CC(=O)NCCN(CC(=O)NCCN(CC(=O)NCCN(CC(=O)NCCN(CC(=O)NCCN(CC(=O)NCCN(CC(=O)O)C(=O)Cn2ccc(N)nc2=O)C(=O)Cn2cnc3c(=O)[nH]c(NCCCCCCN)nc32)C(=O)Cn2ccc(N)nc2=O)C(=O)Cn2ccc(N)nc2=O)C(=O)Cn2cnc3c(=O)[nH]c(NCCCCCCN)nc32)C(=O)Cn2cnc3c(=O)[nH]c(N)nc32)C(=O)Cn2cc(C)c(=O)[nH]c2=O)C(=O)Cn2ccc(N)nc2=O)C(=O)Cn2cnc3c(N)ncnc32)C(=O)Cn2cnc3c(N)nc(NCCCCCN)nc32)C(=O)Cn2cnc3c(N)ncnc32)C(=O)Cn2cnc3c(=O)[nH]c(N)nc32)C(=O)Cn2cc(C)c(=O)[nH]c2=O)C(=O)Cn2ccc(N)nc2=O)C(=O)Cn2ccc(N)nc2=O)C(=O)Cn2cnc3c(N)nc(NCCCCCN)nc32)C(=O)Cn2ccc(N)nc2=O)c(=O)[nH]c1=O	
> 90	inactive	Cc1cn(CC(=O)N(CCNC(=O)CN(CCNC(=O)CN(CCNC(=O)CN(CCNC(=O)CN(CCNC(=O)CN(CCNC(=O)CN(CCNC(=O)CN(CCNC(=O)CN(CCN)C(=O)Cn2cnc3c(N)nc(NCCCCCN)nc32)C(=O)Cn2ccc(N)nc2=O)C(=O)Cn2cnc3c(=O)[nH]c(N)nc32)C(=O)Cn2cnc3c(=O)[nH]c(N)nc32)C(=O)Cn2ccc(N)nc2=O)C(=O)Cn2cc(C)c(=O)[nH]c2=O)C(=O)Cn2cc3cc(COCCN)[nH]c3nc2=O)C(=O)Cn2ccc(N)nc2=O)CC(=O)NCCN(CC(=O)NCCN(CC(=O)NCCN(CC(=O)NCCN(CC(=O)NCCN(CC(=O)NCCN(CC(=O)NCCN(CC(=O)NCCN(CC(=O)NCCN(CC(=O)NCCN(CC(=O)NCCN(CC(=O)O)C(=O)Cn2cnc3c(=O)[nH]c(N)nc32)C(=O)Cn2cnc3c(N)nc(NCCCCCN)nc32)C(=O)Cn2ccc(N)nc2=O)C(=O)Cn2ccc(N)nc2=O)C(=O)Cn2cnc3c(N)nc(NCCCCCN)nc32)C(=O)Cn2ccc(N)nc2=O)C(=O)Cn2cnc3c(=O)[nH]c(N)nc32)C(=O)Cn2cnc3c(=O)[nH]c(NCCCCCCN)nc32)C(=O)Cn2cc(C)c(=O)[nH]c2=O)C(=O)Cn2ccc(N)nc2=O)C(=O)Cn2ccc(N)nc2=O)c(=O)[nH]c1=O	Dose-dependent-effect
78.1	inactive	Cc1cn(CC(=O)N(CCNC(=O)CN(CCNC(=O)CN(CCN)C(=O)Cn2ccc(N)nc2=O)C(=O)Cn2ccc(N)nc2=O)CC(=O)NCCN(CC(=O)NCCN(CC(=O)NCCN(CC(=O)NCCN(CC(=O)NCCN(CC(=O)NCCN(CC(=O)NCCN(CC(=O)NCCN(CC(=O)NCCN(CC(=O)NCCN(CC(=O)NCCN(CC(=O)O)C(=O)Cn2cnc3c(=O)[nH]c(N)nc32)C(=O)Cn2cnc3c(N)ncnc32)C(=O)Cn2cc3cc(COCCN)[nH]c3nc2=O)C(=O)Cn2ccc(N)nc2=O)C(=O)Cn2cnc3c(N)nc(NCCCCCN)nc32)C(=O)Cn2ccc(N)nc2=O)C(=O)Cn2cnc3c(=O)[nH]c(N)nc32)C(=O)Cn2cnc3c(=O)[nH]c(NCCCCCCN)nc32)C(=O)Cn2cc(C)c(=O)[nH]c2=O)C(=O)Cn2ccc(N)nc2=O)C(=O)Cn2cc3cc(COCCN)[nH]c3nc2=O)c(=O)[nH]c1=O	
70.5	inactive	Cc1cn(CC(=O)N(CCN)CC(=O)NCCN(CC(=O)NCCN(CC(=O)NCCN(CC(=O)NCCN(CC(=O)NCCN(CC(=O)NCCN(CC(=O)NCCN(CC(=O)NCCN(CC(=O)NCCN(CC(=O)NCCN(CC(=O)NCCN(CC(=O)NCCN(CC(=O)NCCN(CC(=O)O)C(=O)Cn2ccc(N)nc2=O)C(=O)Cn2cc3cc(COCCN)[nH]c3nc2=O)C(=O)Cn2cc(C)c(=O)[nH]c2=O)C(=O)Cn2ccc(N)nc2=O)C(=O)Cn2cnc3c(=O)[nH]c(NCCCCCCN)nc32)C(=O)Cn2cnc3c(=O)[nH]c(N)nc32)C(=O)Cn2cnc3c(N)nc(NCCCCCN)nc32)C(=O)Cn2ccc(N)nc2=O)C(=O)Cn2cnc3c(=O)[nH]c(NCCCCCCN)nc32)C(=O)Cn2cc(C)c(=O)[nH]c2=O)C(=O)Cn2cnc3c(=O)[nH]c(NCCCCCCN)nc32)C(=O)Cn2cc(C)c(=O)[nH]c2=O)C(=O)Cn2cnc3c(=O)[nH]c(NCCCCCCN)nc32)c(=O)[nH]c1=O	
81	inactive	Cc1cn(CC(=O)N(CCNC(=O)CN(CCNC(=O)CN(CCNC(=O)CN(CCNC(=O)CN(CCNC(=O)CN(CCNC(=O)CN(CCNC(=O)CN(CCNC(=O)CN(CCN)C(=O)Cn2cnc3c(N)nc(NCCCCCN)nc32)C(=O)Cn2ccc(N)nc2=O)C(=O)Cn2cnc3c(=O)[nH]c(N)nc32)C(=O)Cn2cnc3c(=O)[nH]c(NCCCCCCN)nc32)C(=O)Cn2ccc(N)nc2=O)C(=O)Cn2cc(C)c(=O)[nH]c2=O)C(=O)Cn2cc3cc(COCCN)[nH]c3nc2=O)C(=O)Cn2ccc(N)nc2=O)CC(=O)NCCN(CC(=O)NCCN(CC(=O)NCCN(CC(=O)NCCN(CC(=O)NCCN(CC(N)=O)C(=O)Cn2cnc3c(=O)[nH]c(N)nc32)C(=O)Cn2cnc3c(=O)[nH]c(NCCCCCCN)nc32)C(=O)Cn2cc(C)c(=O)[nH]c2=O)C(=O)Cn2ccc(N)nc2=O)C(=O)Cn2cc3cc(COCCN)[nH]c3nc2=O)c(=O)[nH]c1=O	
> 90	inactive	Cc1cn(CC(=O)N(CCNC(=O)CN(CCNC(=O)CN(CCNC(=O)CN(CCNC(=O)CN(CCNC(=O)CN(CCN)C(=O)Cn2cnc3c(N)nc(NCCCCCN)nc32)C(=O)Cn2cnc3c(N)ncnc32)C(=O)Cn2cnc3c(=O)[nH]c(N)nc32)C(=O)Cn2cnc3c(=O)[nH]c(N)nc32)C(=O)Cn2cc(C)c(=O)[nH]c2=O)CC(=O)NCCN(CC(=O)NCCN(CC(=O)NCCN(CC(=O)NCCN(CC(=O)NCCN(CC(=O)NCCN(CC(=O)NCCN(CC(=O)NCCN(CC(=O)NCCN(CC(=O)NCCN(CC(=O)NCCN(CC(=O)NCCN(CC(=O)NCCN(CC(=O)NCCN(CC(=O)O)C(=O)Cn2cnc3c(N)nc(NCCCCCN)nc32)C(=O)Cn2ccc(N)nc2=O)C(=O)Cn2cnc3c(N)ncnc32)C(=O)Cn2cnc3c(N)nc(NCCCCCN)nc32)C(=O)Cn2cc(C)c(=O)[nH]c2=O)C(=O)Cn2ccc(N)nc2=O)C(=O)Cn2ccc(N)nc2=O)C(=O)Cn2cnc3c(=O)[nH]c(N)nc32)C(=O)Cn2cnc3c(=O)[nH]c(N)nc32)C(=O)Cn2cnc3c(N)nc(NCCCCCN)nc32)C(=O)Cn2ccc(N)nc2=O)C(=O)Cn2ccc(N)nc2=O)C(=O)Cn2cc3cc(COCCN)[nH]c3nc2=O)C(=O)Cn2ccc(N)nc2=O)c(=O)[nH]c1=O	
